Test results reported in patent publication US7199114B2, “Triterpene quaternary salts as biologically active surfactants” (The Regents of the University of Minnesota, priority 2002, dated 2007).
≈ marks a conversion by molar mass, not a printed value.

Assays:
[1] = Turf plot trial at Clemson University (Example 85), turf quality; type: in vivo, creeping bentgrass, cv. Pennlinks; settings: 1 to 9 scale, 50 grams active ingredient per 1000 square feet
Protocol: (§1) Plots of creeping bentgrass, cv. “Pennlinks,” were treated with water based sprays of the test compounds. Sprays were delivered by CO2-charged sprayer to deliver the equivalent of 2 gallons of spray per 1000 sq. ft of plot area. Plots were 15 sq. ft. each, and treatments were mixed to apply material to 75 sq. ft (5 replicates), although only 4 replicates were treated. […] Daconil Ultrex® was applied at 3.2 oz./1000 sq. ft. for 14 days. The experiment used a randomized complete block design, with 4 replicates per treatment. Disease pressure was high. Pennlinks […] is moderately to highly susceptible to both dollar spot and brown patch. For brown patch, caused by Rhozoctonia sofani. a visual estimate of the percent of the plot area affected was recorded. Turf quality was estimated on a 1 to 9 scale, with 1 being worst and 9 being perfect. A rating of 6 is considered acceptable.
(§2) Plots of creeping bentgrass, cv. Pennlinks, were treated with water-based sprays as in Example 84 at Clemson University. Treatment application dates were May 7. May 14, May 28, and June 11. Plots were rated visually, estimating the percent of the area affected by dollar spot fungus […]. Turf quality was rated on a 1 to 9 scale, with 9 being perfect turf, as in Example 84. Disease pressure was moderately high to high when the trial was initiated, with existing dollar spot present.

[2] = tested on: dollar spot fungus; experiment: Turf plot trial at Clemson University (Example 85), area affected by dollar spot; type: in vivo, Agrostis stolonifera; settings: 50 grams active ingredient per 1000 square feet
Protocol: as §1, §2

[3] = tested on: Staphylococcus aureus Methicillin-sensitive; experiment: Anti-bacterial activity, broth culture MIC; type: cell-based; settings: Staphylococcus aureus Methicillin-sensitive, broth culture, triplicate; for MIC: read-out: Approximate Minimum Inhibitory Concentration, MIC
Protocol: (§3) Several uncharged or negatively charged triterpenes, and several positively charged triterpenes of the invention were tested for anti-bacterial activity against antibiotic-susceptible and antibiotic resistant strains of four types of bacteria of concern in clinics and hospitals. The triterpenes weres tested in broth culture in triplicate for ability to inhibit bacterial growth. The compounds tested are those listed below.
(§4) The lowest concentration which inhibits bacterial growth is referred to as the minimum inhibitory concentration (MIC), the standard measurement of anti-microbial activity.

[4] = tested on: Staphylococcus aureus Methicillin-resistant; experiment: Anti-bacterial activity, broth culture MIC; type: cell-based; settings: Staphylococcus aureus Methicillin-resistant, broth culture, triplicate; for MIC: read-out: Approximate Minimum Inhibitory Concentration, MIC
Protocol: as §3, §4

[5] = tested on: Enterococcus faecium Vancomycin-sensitive (second listed); experiment: Anti-bacterial activity, broth culture MIC; type: cell-based; settings: Enterococcus faecium Vancomycin-sensitive (r13/r14), broth culture, triplicate; for MIC: read-out: Approximate Minimum Inhibitory Concentration, MIC
Protocol: as §3, §4

[6] = tested on: Enterococcus faecium Vancomycin-sensitive (first listed); experiment: Anti-bacterial activity, broth culture MIC; type: cell-based; settings: Enterococcus faecium Vancomycin-sensitive (r11/r12), broth culture, triplicate; for MIC: read-out: Approximate Minimum Inhibitory Concentration, MIC
Protocol: as §3, §4

[7] = tested on: dollar spot fungus (Agrostis stolonifera); experiment: Turf plot trial at Clemson University (Example 85), area affected by dollar spot; type: in vivo; settings: for % of area infected: 50 grams active ingredient per 1000 square feet
Protocol: as §1, §2

C=C(C)[C@@H]1CC[C@]2(COC(=O)C[N+](C)(C)CCCCCCCC)CC[C@]3(C)C(CCC4[C@@]5(C)CC[C@H](OC(=O)C[N+](C)(C)CCCCCCCC)C(C)(C)C5CC[C@]43C)C12.[Cl-].[Cl-] (stereo partly shown) [Compound 53, Lup-20(29)-ene-3,28-bis(octyldimethylammoniumacetate) dichloride]
Turf quality ([1]; Table 5, Jun. 3, 2002): 5.18 ab | Turf quality ([1]; Table 5, Jun. 17, 2002): 5.38 ab | Turf quality ([1]; Table 5, May 27, 2002): 3.60 ab | Turf quality ([1]; Table 6, May 8, 2002): 3.00 a | Turf quality ([1]; Table 6, May 13, 2002): 3.05 a | Turf quality ([1]; Table 6, May 20, 2002): 3.25 ab | % of area infected ([2]; Table 5 c2, Jun. 3, 2002): 22.5 a % | % of area infected ([2]; Table 5 c4, Jun. 3, 2002): 19.5 ab % | % of area infected ([2]; Table 6, May 8, 2002): 33.5 a % | % of area infected ([2]; Table 6, May 13, 2002): 28.5 a % | % of area infected ([2]; Table 6, May 20, 2002): 27.3 bc % | % of area infected ([2]; Table 6, May 27, 2002): 26.8 bcd %

C=C(C)C1CCC2(COC(=O)CCC(=O)O)CC[C@@]3(C)C(CCC4[C@@]5(C)CCC(O)C(C)(C)C5CC[C@]43C)C12 (stereo partly shown) [Compound 92, betulin-28-succinate, reference compound]
Approximate Minimum Inhibitory Concentration, MIC [3]: 50 µg/mL

C=C(C)C1CCC2(COC(=O)CCC(=O)O)CC[C@@]3(C)C(CCC4[C@@]5(C)CCC(OC(=O)CCC(=O)O)C(C)(C)C5CC[C@]43C)C12 (stereo partly shown) [Compound 91, betulin-3,28-disuccinate, reference compound]
Approximate Minimum Inhibitory Concentration, MIC [3]: 200 µg/mL

C=C(C)[C@@H]1CC[C@]2(COC(=O)/C=C\C(=O)O)CC[C@]3(C)[C@H](CC[C@@H]4[C@@]5(C)CC[C@H](OC(=O)/C=C\C(=O)O)C(C)(C)[C@@H]5CC[C@]43C)[C@@H]12 [Compound 93, betulin-3,28-dimaleate, reference compound]
Approximate Minimum Inhibitory Concentration, MIC [4]: 200 µg/mL | Approximate Minimum Inhibitory Concentration, MIC [3]: 200 µg/mL

C=C(C)[C@@H]1CC[C@]2(COC(=O)C(C)[N+]34CCN(CC3)CC4)CC[C@]3(C)C(CCC4[C@@]5(C)CC[C@H](OC(=O)C(C)[N+]67CCN(CC6)CC7)C(C)(C)C5CC[C@]43C)C12.Cl.Cl (stereo partly shown) [Compound 22, Lup-20(29)-ene-3,28-bis[N-(1,4-diazabicyclo [2.2.2]octyl)-2-propionate]-dichloride]
Turf quality ([1]; Table 5, Jun. 3, 2002): 4.80 abc | Turf quality ([1]; Table 5, Jun. 17, 2002): 5.07 ab | Turf quality ([1]; Table 5, May 27, 2002): 3.05 b | Turf quality ([1]; Table 6, May 8, 2002): 3.00 a | Turf quality ([1]; Table 6, May 13, 2002): 3.13 a | Turf quality ([1]; Table 6, May 20, 2002): 2.95 ab | % of area infected ([2]; Table 5 c2, Jun. 3, 2002): 24.5 a % | % of area infected ([2]; Table 5 c4, Jun. 3, 2002): 17.3 ab % | % of area infected ([2]; Table 6, May 8, 2002): 34.3 a % | % of area infected ([2]; Table 6, May 13, 2002): 28.5 a % | % of area infected ([2]; Table 6, May 20, 2002): 31.5 bc % | % of area infected ([2]; Table 6, May 27, 2002): 32.0 ab %

C=C(C)[C@@H]1CC[C@]2(C)CC[C@]3(C)[C@H](CC[C@@H]4[C@@]5(C)C=C(O)C(=O)C(C)(C)[C@@H]5CC[C@]43C)[C@@H]12 [Compound 85, lupeneno-1-ene-2-ol, reference compound]
MIC [4]: 100 µg/mL (≈ 228 µM) | MIC [5]: 50 µg/mL (≈ 114 µM) | MIC [3]: 50 µg/mL (≈ 114 µM) | MIC [6]: 20 µg/mL (≈ 45.6 µM)

C=C(C)[C@@H]1CC[C@]2(COC(=O)C[N+](C)(C)CCCCCCCCCCCCCC)CC[C@]3(C)C(CCC4[C@@]5(C)CC[C@H](OC(=O)C[N+](C)(C)CCCCCCCCCCCCCC)C(C)(C)C5CC[C@]43C)C12.[Cl-].[Cl-] (stereo partly shown) [Compound 55, Lup-20(29)-ene-3,28-bis(tetradecyldimethylamoniumacetate) dichloride]
Turf quality ([1]; Table 5, Jun. 3, 2002): 5.10 ab | Turf quality ([1]; Table 5, Jun. 17, 2002): 5.2 ab | Turf quality ([1]; Table 5, May 27, 2002): 3.38 ab | Turf quality ([1]; Table 6, May 8, 2002): 3.05 a | Turf quality ([1]; Table 6, May 13, 2002): 3.00 a | Turf quality ([1]; Table 6, May 20, 2002): 2.97 ab | % of area infected ([2]; Table 5 c2, Jun. 3, 2002): 28.8 a % | % of area infected ([2]; Table 5 c4, Jun. 3, 2002): 24.3 a % | % of area infected ([2]; Table 6, May 8, 2002): 33.5 a % | % of area infected ([2]; Table 6, May 13, 2002): 30.0 a % | % of area infected ([2]; Table 6, May 20, 2002): 32.8 b % | % of area infected ([2]; Table 6, May 27, 2002): 29.3 a-d %

C=C(C)C1CCC2(C)CCC3(C)C(CCC4C5(C)CCC(OC(=O)C=CC(=O)O)C(C)(C)C5CCC43C)C12 (stereo not shown) [Compound 86, lupeol-3-maleate, reference compound]
Approximate Minimum Inhibitory Concentration, MIC [5]: 50 µg/mL | Approximate Minimum Inhibitory Concentration, MIC [6]: 10 µg/mL | Approximate Minimum Inhibitory Concentration, MIC ([6]; listed as lupeol-3-maleate): ≤ 10 µg/mL

C=C(C)[C@@H]1CC[C@]2(CO)CC[C@]3(C)C(CCC4[C@@]5(C)CC[C@H](OC(=O)C[N+](C)(CCCCCCCCCC)CCCCCCCCCC)C(C)(C)C5CC[C@]43C)C12.[Cl-] (stereo partly shown) [Compound 67, Betulin-3-(didecylmethylammoniumacetoxy) chloride]
Turf quality ([1]; Table 5, Jun. 3, 2002): 6.00 a | Turf quality ([1]; Table 5, Jun. 17, 2002): 5.80 a | Turf quality ([1]; Table 5, May 27, 2002): 4.85 a | Turf quality ([1]; Table 6, May 8, 2002): 3.20 a | Turf quality ([1]; Table 6, May 13, 2002): 3.17 a | Turf quality ([1]; Table 6, May 20, 2002): 3.55 a | % of area infected ([7]; Table 5 c2, Jun. 3, 2002): 13.0 b % | % of area infected ([7]; Table 5 c4, Jun. 3, 2002): 9.0 b % | % of area infected ([7]; Table 6, May 8, 2002): 28.3 a % | % of area infected ([7]; Table 6, May 13, 2002): 26.0 a % | % of area infected ([7]; Table 6, May 20, 2002): 24.3 c % | % of area infected ([7]; Table 6, May 27, 2002): 21.0 d % | extent of dollar spot infection ([7]; by the end of the treatment trial, compared to the no treatment control (text summary of Tables 5 and 6)): best results

C=C(C)[C@@H]1CC[C@]2(CO)CC[C@]3(C)C(CCC4[C@@]5(C)CC[C@H](OC(=O)C[N+]67CCN(CC6)CC7)C(C)(C)C5CC[C@]43C)C12.[Cl-] (stereo partly shown) [Compound 6]
MIC [4]: 2 µg/mL | MIC [5]: 10 µg/mL | MIC [3]: 2 µg/mL | MIC [6]: 5 µg/mL

C=C(C)[C@@H]1CC[C@]2(COC(=O)/C=C\C(=O)O)CC[C@]3(C)[C@H](CC[C@@H]4[C@@]5(C)CC[C@H](O)C(C)(C)[C@@H]5CC[C@]43C)[C@@H]12 [Compound 94, betulin-28-maleate, reference compound]
Approximate Minimum Inhibitory Concentration, MIC [5]: 200 µg/mL | Approximate Minimum Inhibitory Concentration, MIC [3]: 50 µg/mL | Approximate Minimum Inhibitory Concentration, MIC [6]: 200 µg/mL
